Several values for one entry are separate records, joined by “and”; a condition that tells them apart may be missing. Equal values may be shown once.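 Where inhibition never reached the appropriate level, the endpoint shown equals the highest concentration tested. Otherwise, values were interpolated linearly from a five-concentration, 48-hour dose response in 96-well plates. GI50: concentration for 50% inhibition of growth.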 Activity calls are given as the source filed them. Cut-off read from the data, not from the text of the source: active = GI50 up to about 1.1 µM and inactive = higher.
Columns and labels:
Assay in all cases: DTP human tumour cell line panel, 48 h
[1] = test system: CCRF-CEM
[2] = test system: DMS-114
[3] = test system: SN12C
[4] = test system: A549
[5] = test system: IGROV-1
[6] = test system: HCC 2998
[7] = test system: A498
[8] = test system: SK-MEL-28
[9] = test system: HCT-15
[10] = test system: HL-60
[11] = test system: SK-OV-3
[12] = test system: SR
[13] = test system: SF-295
[14] = test system: KM-20L2
[15] = test system: EKVX
[16] = test system: NCI-H226
[17] = test system: OVCAR-8
[18] = test system: DLD-1
[19] = test system: SNB-19
[20] = test system: SNB-75
[21] = test system: HT-29
[22] = test system: OVCAR-4
[23] = test system: U-251
[24] = test system: HOP-92
[25] = test system: Malme-3M
[26] = test system: SW-620
[27] = test system: SF-268
[28] = test system: NCI-H522
[29] = test system: UO-31
[30] = test system: NCI-H23
[31] = test system: M14
[32] = test system: RPMI-8226
[33] = test system: 786-0
[34] = test system: HOP-62
[35] = test system: UACC-62
[36] = test system: HCT-116
[37] = test system: M19-MEL
[38] = test system: LXFL 529
[39] = test system: UACC-257
[40] = test system: MOLT-4
[41] = test system: RXF 393
[42] = test system: ACHN
[43] = test system: SK-MEL-5
[44] = test system: COLO 205
[45] = test system: HOP-18
[46] = test system: K562
[47] = test system: DMS-273
[48] = test system: SF-539
[49] = test system: OVCAR-5
[50] = test system: NCI-H460
[51] = test system: LOX IMVI
[52] = test system: KM12
[53] = test system: SK-MEL-2
[54] = test system: TK-10
[55] = test system: CAKI-1
[56] = test system: OVCAR-3
[57] = test system: SNB-78

O=C1c2ccccc2N2OC3C4CCC(C4)C3C12c1ccccc1 (stereo not given)
GI50 [1]: 44.2 µM (inactive) | GI50 [2]: 62.5 µM (inactive) | GI50 [3]: 86.9 µM (inactive) | GI50 [4]: 55.5 µM (inactive) | GI50 [5]: > 100 µM (inactive) | GI50 [6]: > 100 µM (inactive) | GI50 [7]: > 100 µM (inactive) | GI50 [8]: 87.3 µM (inactive) | GI50 [9]: 45.8 µM | GI50 [10]: 33.5 µM (inactive) | GI50 [11]: > 100 µM (inactive) | GI50 [12]: 44.1 µM (inactive) | GI50 [13]: > 100 µM (inactive) | GI50 [14]: 98.2 µM (inactive) | GI50 [15]: > 100 µM (inactive) | GI50 [16]: > 100 µM (inactive) | GI50 [17]: > 100 µM (inactive) | GI50 [18]: 18.3 µM (inactive) | GI50 [19]: > 100 µM (inactive) | GI50 [20]: > 100 µM (inactive) | GI50 [21]: 61.4 µM (inactive) | GI50 [22]: > 100 µM (inactive) | GI50 [23]: 86.5 µM (inactive) | GI50 [24]: 40.8 µM (inactive) | GI50 [25]: > 100 µM (inactive) | GI50 [26]: > 100 µM (inactive) | GI50 [27]: > 100 µM (inactive) | GI50 [28]: 36 µM (inactive) | GI50 [29]: 71.3 µM (inactive) | GI50 [30]: 94.6 µM (inactive) | GI50 [31]: 92.5 µM (inactive) | GI50 [32]: 37.1 µM (inactive) | GI50 [33]: > 100 µM (inactive) | GI50 [34]: > 100 µM (inactive) | GI50 [35]: 93.8 µM (inactive) | GI50 [36]: 45.5 µM (inactive) | GI50 [37]: 93.1 µM (inactive) | GI50 [38]: 73.8 µM (inactive) | GI50 [39]: 70 µM (inactive) | GI50 [40]: 32.1 µM (inactive) | GI50 [41]: 16.5 µM (inactive) | GI50 [42]: > 100 µM (inactive) | GI50 [43]: 60.8 µM (inactive) | GI50 [44]: > 100 µM (inactive) | GI50 [45]: > 100 µM (inactive) | GI50 [46]: 47 µM (inactive) | GI50 [47]: 39.6 µM (inactive) | GI50 [48]: > 100 µM (inactive)

N#CC1(C#N)C(c2ccc(C3C(C#N)(C#N)C3(C#N)C#N)cc2)C1(C#N)C#N
GI50 [1]: > 100 µM (inactive) | GI50 [49]: > 100 µM (inactive) | GI50 [2]: > 100 µM (inactive) | GI50 [3]: > 100 µM (inactive) | GI50 [4]: > 100 µM (inactive) | GI50 [5]: > 100 µM (inactive) | GI50 [6]: > 100 µM (inactive) | GI50 [8]: > 100 µM (inactive) | GI50 [9]: > 100 µM | GI50 [10]: > 100 µM (inactive) | GI50 [11]: > 100 µM (inactive) | GI50 [13]: > 100 µM (inactive) | GI50 [14]: > 100 µM (inactive) | GI50 [15]: > 100 µM (inactive) | GI50 [50]: > 100 µM (inactive) | GI50 [17]: > 100 µM (inactive) | GI50 [51]: > 100 µM (inactive) | GI50 [52]: > 100 µM (inactive) | GI50 [18]: > 100 µM (inactive) | GI50 [19]: > 100 µM (inactive) | GI50 [20]: > 100 µM (inactive) | GI50 [53]: > 100 µM (inactive) | GI50 [54]: > 100 µM (inactive) | GI50 [21]: > 100 µM (inactive) | GI50 [22]: > 100 µM (inactive) | GI50 [55]: > 100 µM (inactive) | GI50 [23]: > 100 µM (inactive) | GI50 [24]: > 100 µM (inactive) | GI50 [25]: > 100 µM (inactive) | GI50 [26]: > 100 µM (inactive) | GI50 [27]: > 100 µM (inactive) | GI50 [56]: > 100 µM (inactive) | GI50 [28]: 58.3 µM (inactive) | GI50 [29]: > 100 µM (inactive) | GI50 [30]: > 100 µM (inactive) | GI50 [31]: > 100 µM (inactive) | GI50 [32]: > 100 µM (inactive) | GI50 [33]: > 100 µM (inactive) | GI50 [34]: > 100 µM (inactive) | GI50 [35]: > 100 µM (inactive) | GI50 [37]: > 100 µM (inactive) | GI50 [38]: > 100 µM (inactive) | GI50 [39]: > 100 µM (inactive) | GI50 [40]: > 100 µM (inactive) | GI50 [41]: > 100 µM (inactive) | GI50 [42]: > 100 µM (inactive) | GI50 [43]: > 100 µM (inactive) | GI50 [44]: > 100 µM (inactive) | GI50 [45]: > 100 µM (inactive) | GI50 [46]: > 100 µM (inactive) | GI50 [47]: > 100 µM (inactive) | GI50 [48]: > 100 µM (inactive)

COc1ccc(-c2cc(-c3ccco3)c(C#N)c(=O)n2C2OC(COC(C)=O)C(OC(C)=O)C(OC(C)=O)C2OC(C)=O)cc1 (stereo not given)
GI50 [49]: > 100 µM (inactive) | GI50 [4]: > 100 µM (inactive) | GI50 [6]: > 100 µM (inactive) | GI50 [12]: > 100 µM (inactive) | GI50 [14]: > 100 µM (inactive) | GI50 [15]: > 100 µM (inactive) | GI50 [57]: > 100 µM (inactive) | GI50 [16]: 2.63 µM (inactive) | GI50 [52]: 69.7 µM (inactive) | GI50 [18]: 50.9 µM (inactive) | GI50 [20]: > 100 µM (inactive) and 58.9 µM (inactive) | GI50 [54]: 20 µM (inactive) and 28.1 µM (inactive) | GI50 [22]: > 100 µM (inactive) | GI50 [55]: > 100 µM (inactive) and 63.5 µM (inactive) | GI50 [24]: 24.9 µM (inactive) and 22.1 µM (inactive) | GI50 [26]: > 100 µM (inactive) | GI50 [30]: > 100 µM (inactive) | GI50 [32]: 5.58 µM (inactive) and 3.96 µM (inactive) | GI50 [37]: 76 µM (inactive) | GI50 [38]: 11.4 µM (inactive) | GI50 [39]: > 100 µM (inactive) | GI50 [40]: > 100 µM (inactive) | GI50 [43]: > 100 µM (inactive) | GI50 [44]: > 100 µM (inactive) | GI50 [47]: > 100 µM (inactive)

CCSc1nc2cccc([N+](=O)[O-])c2n1CC
GI50 [1]: > 100 µM (inactive) | GI50 [2]: > 100 µM (inactive) | GI50 [4]: > 100 µM (inactive) | GI50 [5]: > 100 µM (inactive) | GI50 [6]: > 100 µM (inactive) | GI50 [8]: > 100 µM (inactive) | GI50 [10]: > 100 µM (inactive) | GI50 [11]: > 100 µM (inactive) | GI50 [15]: > 100 µM (inactive) | GI50 [57]: > 100 µM (inactive) | GI50 [50]: > 100 µM (inactive) | GI50 [16]: > 100 µM (inactive) | GI50 [17]: > 100 µM (inactive) | GI50 [51]: > 100 µM (inactive) | GI50 [52]: > 100 µM (inactive) | GI50 [18]: > 100 µM (inactive) | GI50 [19]: > 100 µM (inactive) | GI50 [20]: > 100 µM (inactive) | GI50 [54]: > 100 µM (inactive) | GI50 [21]: > 100 µM (inactive) | GI50 [22]: > 100 µM (inactive) | GI50 [55]: > 100 µM (inactive) | GI50 [23]: > 100 µM (inactive) | GI50 [24]: > 100 µM (inactive) | GI50 [26]: > 100 µM (inactive) | GI50 [56]: > 100 µM (inactive) | GI50 [28]: > 100 µM (inactive) | GI50 [30]: > 100 µM (inactive) | GI50 [31]: > 100 µM (inactive) | GI50 [32]: > 100 µM (inactive) | GI50 [35]: > 100 µM (inactive) | GI50 [38]: > 100 µM (inactive) | GI50 [39]: > 100 µM (inactive) | GI50 [40]: > 100 µM (inactive) | GI50 [41]: > 100 µM (inactive) | GI50 [43]: > 100 µM (inactive) | GI50 [44]: > 100 µM (inactive) | GI50 [46]: > 100 µM (inactive) | GI50 [47]: > 100 µM (inactive) | GI50 [48]: > 100 µM (inactive)

— ChEMBL document CHEMBL1201862, “PubChem BioAssay data set” (2004)
